Results taken from US20080026003A1, “Methods for inhibiting pain” (The General Hospital Corporation, priority 2000, published 2008).
“Also recorded” adds a separate entry of the source. Where two headings read alike, the source gives them in different places.

What was measured:
VR1 protein = VR1 protein in DRG after CFA inflammation (Western blot, immunohistochemistry); assay type: in vivo, rat; details: for induction of VR1 after inflammation: continuous intrathecal infusion via osmotic pump, two days
Protocol: L4 and L5 DRGs and L4-L5 spinal cord segments were dissected. DRG and transverse spinal cord sections (20 μm) were cut and processed for immunohistochemistry using the previously described ABC method (Ji et al., Nat. Neurosci. 2:1114-1119, 1999), with polyclonal anti-p38 and phospho-p38 (1:300, New England BioLabs) and polyclonal anti-VR1 antibodies (1:5000, Kindly provided by Glaxso Welcome and Dr. David Julius). For colocalization studies, immunofluorescence was performed to analyze the double staining between antibodies reactive with phosphop38 (anti-rabbit, 1:300) and VR1 (anti-guinea pig, 1:3000, Neuromics) or P2X3 (anti-guinea pig, 1:3000, Neuromics) or NeuN (anti-mouse, 1:3000, Chemicon). This double immunofluorescence was performed as previously described (Ji et al., 2001, supra). Briefly, DRG and spinal sections were incubated with a mixture of two primary antibodies overnight at 4° C. and then incubated with a mixture of FITC- and CY3-congugated secondary antibodies (1:300, Jackson immunolab) for two hours at room temperature. A Tyramide Signal Amplification (TSA, NEN) kit was used to perform double staining with two polyclonal rabbit antibodies (phospho p38 and TrkA) as previously reported (Amaya et al., Mol. Cell Neurosci 15:331-342, 2000). The images of immunostained DRG sections were captured with a CCD camera. The intensity of immunostaining was measured with computer-assisted software (IP lab), and the number of immunoreactive neuronal profiles was counted in a blinded fashion. […] Instead, the results provide a way to evaluate differences in staining levels between control and treated animals. To prevent variations due to experimental conditions, the control and treated DRG sections were mounted on the same slides and processed under the same conditions. […]
To determine whether expression of VR1 protein in DRG neurons was induced by peripheral inflammation, the following Western blot analysis was used. […] The density of specific bands was measured and normalized with internal control bands from the loading control. […]

p-p38 and VR1 = p-p38 and VR1 in DRG after intrathecal NGF; assay type: in vivo, rat; details: 1 μg co-administered with NGF twice a day for three days
Protocol: L4 and L5 DRGs and L4-L5 spinal cord segments were dissected. DRG and transverse spinal cord sections (20 μm) were cut and processed for immunohistochemistry using the previously described ABC method (Ji et al., Nat. Neurosci. 2:1114-1119, 1999), with polyclonal anti-p38 and phospho-p38 (1:300, New England BioLabs) and polyclonal anti-VR1 antibodies (1:5000, Kindly provided by Glaxso Welcome and Dr. David Julius). For colocalization studies, immunofluorescence was performed to analyze the double staining between antibodies reactive with phosphop38 (anti-rabbit, 1:300) and VR1 (anti-guinea pig, 1:3000, Neuromics) or P2X3 (anti-guinea pig, 1:3000, Neuromics) or NeuN (anti-mouse, 1:3000, Chemicon). This double immunofluorescence was performed as previously described (Ji et al., 2001, supra). Briefly, DRG and spinal sections were incubated with a mixture of two primary antibodies overnight at 4° C. and then incubated with a mixture of FITC- and CY3-congugated secondary antibodies (1:300, Jackson immunolab) for two hours at room temperature. A Tyramide Signal Amplification (TSA, NEN) kit was used to perform double staining with two polyclonal rabbit antibodies (phospho p38 and TrkA) as previously reported (Amaya et al., Mol. Cell Neurosci 15:331-342, 2000). The images of immunostained DRG sections were captured with a CCD camera. The intensity of immunostaining was measured with computer-assisted software (IP lab), and the number of immunoreactive neuronal profiles was counted in a blinded fashion. […] Instead, the results provide a way to evaluate differences in staining levels between control and treated animals. To prevent variations due to experimental conditions, the control and treated DRG sections were mounted on the same slides and processed under the same conditions. […] As previously reported (Ji et al., 1999, supra), every fifth section was picked from a series of consecutive DRG sections (20 μm), and four sections were included for each DRG. The percentage of immnunoreactive neuronal profiles=(number of positive stained neuronal profiles/number of total neuronal profiles)×100.
After CFA-induced inflammation, NGF is produced in the inflamed paw tissue and is retrogradely transported to the cell body of DRG neurons. NGF is critical for gene expression in DRG neurons and plays a major role in inflammatory pain (Lindsay et al., Nature 337: 362-364, 1989; and Woolf et al., Neuroscience 62:327-331, 1994). […] To determine whether NGF is required for the inflammation-induced activation of p38 and upregulation of VR1, NGF antiserum (i.p., 5 μl/g body weight, 84 mg/ml) was injected to neutralize endogenous NGF. […] Intrathecal injection of NGF (2 μg in 10 μl, twice a day for three days, Boeringer) increased both p-p38 levels and VR1 levels in DRG neurons. […]

[1] = system: CFA-induced inflammatory pain in rats; assay: Heat and mechanical sensitivity after intrathecal p38 inhibitor; assay type: in vivo, rat; details: intrathecal 1 μg 24 hours after CFA treatment; tested 0.5, 3 and 24 hours
CFA-injected paws = assay: CFA-induced paw swelling (paw thickness); assay type: in vivo, rat; details: intrathecal infusion by osmotic pump started before CFA
Protocol: (§1) CFA-induced inflammatory pain is characterized by hyperalgesia (i.e., an increased sensitivity to a noxious stimulus) and allodynia (i.e., generation of pain by a normally innocuous stimulus). To examine the involvement of p38 activation in the DRG in inflammatory pain, 10 μl of a specific p38 inhibitor, SB 203580 (1 μg, Calbiochem), was administered into the intrathecal space (close to L4 DRG level) via an intrathecal PP10 catheter. Although p38 inhibitors have an anti-inflammatory action when delivered systematically, localized intrathecal drug administration should not affect inflammation in the paw. To obtain a sustained and stable drug infusion, an Alzet osmotic pump (seven day pump, 0.5 μl/hour) was filled with the p38-inhibitor SB 203580 (1 μg/μl) in saline, and the associated catheter of the pump was implanted intrathecally sixteen hours before CFA injection. Saline was used as vehicle control for the osmotic pump.

[2] = system: CFA-induced inflammatory pain in rats; assay: Heat and mechanical sensitivity after intrathecal p38 inhibitor; assay type: in vivo, rat; details: for late phase of inflammation-induced heat hyperalgesia: 24 and 48 hours after CFA
Protocol: as §1
To test whether the p38 inhibitor affects basal pain sensitivity, heat and mechanical sensitivity were measured, as previously described (Ji et al., 2001, supra). Briefly, animals were habituated and basal pain sensitivity was tested before drug administration or surgery. Mechanical withdrawal threshold on the plantar surface of the hindpaw was measured with a set of von Frey hairs. […] Thermal paw withdrawal latency was measured using the Hargreaves radiant heat apparatus and averaged over three trials. […] To investigate whether the p38 inhibitor affects established inflammatory pain, SB203580 (1 μg) was intrathecally injected 48 hours after CFA injection. Pain behavior was measured 0.5, 3, and 24 hours after the inhibitor was injected.

[3] = system: CFA-induced inflammatory pain in rats
From the text: For these studies, animals were habituated to the testing environment daily for two days before baseline testing. Except for the heat test, all the animals were placed on an elevated wire grid. For mechanical allodynia, the plantar surface of the hindpaw was stimulated with a series of von Frey hairs. The threshold was taken as the lowest force that evoked a brisk withdrawal response. For heat hyperalgesia, the plantar surface of a hindpaw was exposed to a beam of radiant heat through a transparent Perspex surface (Hargreaves et al., Pain 32:77-88, 1988). The withdrawal latency was recorded, with a maximum 15 seconds as cutoff. The withdrawal latency was averaged over three trials.
To examine the functional consequences of ERK activation and its downstream effects on prodynorphin and NK-1 upregulation, we determined whether inhibition of ERK activation modified inflammatory pain hypersensitivity.
ERK activation by CFA may contribute to inflammatory pain hypersensitivity either by maintaining ongoing post-translational changes or by inducing transcription of genes such as NK1 and prodynorphin. In the former case, blocking ERK activation in established inflammation would be expected to reduce the pain hypersensitivity within tens of minutes due to dephosphorylation of ERK substrates. If the contribution of ERK activation were through transcription, inhibiting ERK activation would be expected to have no immediate effect, but have a delayed effect. To distinguish between these two possible mechanisms, U0126 was intrathecally injected (1 μg) into rats with established inflammation (24 hours after CFA injection) and tested pain hypersensitivity 30 minutes, 6 hours, and 24 hours after the injection of U0126.

NK-1 = details: 1 μg intrathecal 30 minutes before and 6 hours after CFA; 24 hours
Protocol: The data are represented as mean+SEM.
To explore whether ERK activation is involved in NK-1 upregulation, the MEK inhibitor U0126 was delivered intrathecally before the induction of inflammation via an osmotic pump (0.5 μg/ul/hr for 2 days). In particular, an Alzet osmotic pump (three days pump, 1 μl/hr) was filled with the MEK-inhibitor U0126 (0.5 μg/μl) in 50% DMSO, and the catheter of the pump implanted intrathecally at least three hours before CFA injection. DMSO (50%) was used as vehicle control.

prodynorphin mRNA = details: 2×1 μg intrathecal; 24 hours after CFA
From the text: To investigate changes in the expression of prodynorphin in response to inflammation, an RNase protection assay, in situ hybridization, and immunohistochemistry were used. […] Differences between groups were compared using student the t-test or ANOVA, followed by Fisher's PLSD. For non-parametric data, the Mann-Whittney U test was applied.
For the in situ hybridization analysis, animals were rapidly sacrificed in a CO2 chamber, and L4-L5 spinal cord segments were removed and cut on a cryostat at a thickness of 20 μm. […] An antinsense RNA probe, and the corresponding sense control probe, were labeled by in vitro transcription using linearized DNA templates for prodynorphin and dig labeling mixture for two hours at 37° C. […] Tissue Sections were air dried for two hours, fixed in 4% paraformaldehyde for 15 minutes, and acetylated in acetic anhydride (0.25%) for 10 minutes. Sections were pre-hybridized for two hours at room temperature, then incubated in hybridization buffer overnight at 60° C. […] Eight non-adjacent sections from the L4-L5 lumbar spinal cord were randomly selected, and the numbers of mRNA-positive neuronal profiles in the superficial laminae and/or deep laminae of the dorsal horn in each section were counted (under a 20× object field) by an observer blind to the treatment. […]

[4] = intrathecal infusion before CFA
[5] = intrathecal infusion before CFA, listed as SB 203580
[6] = non-inflamed animals, 1 μg intrathecal, 30 minutes after administration

C[S+]([O-])c1ccc(-c2nc(-c3ccncc3)c(-c3ccc(F)cc3)[nH]2)cc1 (stereo not shown) [SB203580]
induction of VR1 after inflammation (VR1 protein): inhibited; also recorded: blocked
induction of VR1 after inflammation (VR1 protein; listed as SB 203580): decreased
CFA-induced upregulation of VR1 protein (Western blot) (VR1 protein; intrathecal 1 μg twice a day for two days, at two days): blocked
NGF-induced VR1 increase (p-p38 and VR1): significantly suppressed
NGF-induced VR1 increase (p-p38 and VR1; listed as 203580): blocked
inflammatory heat hyperalgesia [1]: delayed inhibition
CFA-induced swelling, based on paw thickness (CFA-injected paws): does not change
CFA-induced swelling, based on paw thickness (CFA-injected paws; listed as SB 203085): did not reduce
established inflammatory pain ([2]; 1 μg intrathecal after CFA, 0.5 hours post-injection): did not affect
heat hyperalgesia ([2]; 1 μg intrathecal after CFA, 24 hours post-injection): completely reversed
heat hyperalgesia ([2]; 1 μg intrathecal after CFA, three hours post-injection): started to decrease
inflammatory heat hyperalgesia ([2]; intrathecal bolus 1 μg twice a day for two days, first 30 minutes prior to CFA): decreased
mechanical allodynia [2, 4]: did not significantly affect
late phase of inflammation-induced heat hyperalgesia [2, 4]: alleviated
late phase of inflammation-induced heat hyperalgesia [2, 5]: reduced
mechanical allodynia [2, 5]: did not affect
heat and mechanical sensitivity in non-inflamed rats ([2]; non-inflamed rats, intrathecal): Neither heat nor mechanical sensitivity in non-inflamed rats was affected
early phase of inflammatory pain ([2]; six hour time point, intrathecal infusion before CFA): did not change

N#CC(=C(/N)Sc1ccccc1N)/C(C#N)=C(\N)Sc1ccccc1N [U0126]
heat hyperalgesia and mechanical allodynia ([3]; 1 μg intrathecal 24 hours after CFA, tested at 30 minutes): Neither heat hyperalgesia nor mechanical allodynia was significantly affected
mechanical allodynia ([3]; 1 μg intrathecal 24 hours after CFA, tested at 6 hours): decreased
heat hyperalgesia ([3]; 1 μg intrathecal 24 hours after CFA, tested at 24 hours): decreased
heat withdrawal latency [3, 6]: 113 % of vehicle control
mechanical withdrawal threshold [3, 6]: 108 % of the vehicle control
CFA-induced NK-1 increase in the dorsal horn (Western blot) (NK-1): inhibited
number of prodynorphin mRNA labeled neurons in the deep laminae (prodynorphin mRNA): without affecting
